Test results published in ChEMBL document CHEMBL1201862, “PubChem BioAssay data set” (2004).
The source made the active and inactive calls.

How the values were obtained:
[1] = target: T1, Alkaline phosphatase, tissue-nonspecific isozyme (Homo sapiens, UniProt P05186); experiment: potency against alkaline phosphatase TNAP – biochemical, luminescent, dose response, SAR follow-up (AID 1056)
T1 sequence (P05186 whole entry): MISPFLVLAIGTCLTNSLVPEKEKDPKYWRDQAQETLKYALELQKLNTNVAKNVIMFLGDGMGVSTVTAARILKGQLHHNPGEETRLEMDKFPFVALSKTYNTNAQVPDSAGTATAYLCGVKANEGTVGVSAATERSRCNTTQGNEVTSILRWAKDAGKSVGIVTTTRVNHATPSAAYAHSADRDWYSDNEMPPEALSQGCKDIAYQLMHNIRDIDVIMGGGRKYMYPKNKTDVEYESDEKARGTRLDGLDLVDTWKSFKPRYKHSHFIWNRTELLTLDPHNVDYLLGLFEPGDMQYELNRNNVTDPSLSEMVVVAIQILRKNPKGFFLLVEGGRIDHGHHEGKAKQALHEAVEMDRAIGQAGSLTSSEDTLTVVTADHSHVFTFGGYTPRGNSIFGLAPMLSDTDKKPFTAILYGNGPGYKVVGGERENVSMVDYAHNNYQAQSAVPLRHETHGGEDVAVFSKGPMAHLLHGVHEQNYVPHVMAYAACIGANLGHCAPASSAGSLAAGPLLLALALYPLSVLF

[2] = target: Alkaline phosphatase, placental type (Homo sapiens, UniProt P05187); experiment: human placental alkaline phosphatase inhibition – biochemical, luminescence, confirmation (AID 1512); assay type: functional
[3] = THP-1 cell cytotoxicity, dose response, cytotoxicity control for non-replicating M. tuberculosis project (AID 489025); assay type: functional
cells = assay type: functional
[4] = HepG2 cell cytotoxicity, dose response, cytotoxicity control for non-replicating M. tuberculosis project (AID 489018); assay type: functional; conditions: Mycobacterium tuberculosis
[5] = target: Voltage-dependent T-type calcium channel subunit alpha-1H (Homo sapiens, UniProt O95180); assay type: functional;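 also: channel activity triggered by adding a high calcium stimulation buffer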
[6] = Trypanosoma cruzi growth suppression in host cells – NIH3T3 host cells, beta-gal luminescence, confirmation (AID 2044); assay type: functional, cell-based;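 also: intracellular parasites grown in NIH/3T3 mouse fibroblasts as host cells; luminescent beta-galactosidase reporter signal from transgenic T. cruzi replicating inside host cells; inhibitors lower the luminescence signal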
[7] = Vero E6 cell cytotoxicity, dose response, cytotoxicity control for non-replicating M. tuberculosis project, secondary assay (AID 492998); assay type: functional, VeroE6; conditions: Vero C1008
[8] = NIH3T3 cell viability loss – ATP luminescence, mouse fibroblasts, counter-screen, dose response (AID 2010); assay type: functional, cell-based;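 also: cells exposed to compound for about 90 hours before reading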
Protein skinhead-1 = target: T2, Protein skinhead-1 (Caenorhabditis elegans, UniProt P34707); assay type: functional
T2 sequence (P34707 whole entry): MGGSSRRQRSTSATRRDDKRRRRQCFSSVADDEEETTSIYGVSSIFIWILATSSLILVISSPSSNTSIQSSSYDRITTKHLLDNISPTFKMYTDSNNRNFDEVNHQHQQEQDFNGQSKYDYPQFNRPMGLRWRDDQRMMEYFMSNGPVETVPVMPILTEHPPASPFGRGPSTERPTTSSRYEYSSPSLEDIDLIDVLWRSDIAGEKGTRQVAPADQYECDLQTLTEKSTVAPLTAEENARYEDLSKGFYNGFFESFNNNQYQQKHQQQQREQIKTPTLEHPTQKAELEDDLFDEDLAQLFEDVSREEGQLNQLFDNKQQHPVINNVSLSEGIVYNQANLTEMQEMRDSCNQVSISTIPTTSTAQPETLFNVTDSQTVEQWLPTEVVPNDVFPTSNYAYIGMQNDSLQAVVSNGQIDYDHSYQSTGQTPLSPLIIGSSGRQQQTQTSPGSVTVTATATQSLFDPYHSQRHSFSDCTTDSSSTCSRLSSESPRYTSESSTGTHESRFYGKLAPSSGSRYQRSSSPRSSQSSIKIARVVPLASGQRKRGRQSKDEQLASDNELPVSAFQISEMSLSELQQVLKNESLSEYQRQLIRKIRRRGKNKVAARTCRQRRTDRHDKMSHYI

[9] = microbe, parasite or virus in culture; assay type: functional; conditions: Mycobacterium tuberculosis
[10] = reduction of Shn3 3'UTR-driven luciferase in osteoblasts – cell-based, Clone20 osteoblasts, firefly luciferase, cherry-picked, dose response (AID 624132); assay type: functional;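 also: firefly luciferase luminescence from reporter carrying the Shn3 3'UTR in osteoblasts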
[11] = viability of PTEN-deleted HCT116 cells – cell-based, HCT116 PTEN knockout, dose response (AID 1047); assay type: functional;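 also: HCT116 colon tumor cells with PTEN knocked out; cells exposed to compound for 60 hours before readout; potency for loss of cell viability measured by luminescence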
BJ [12] = experiment: BJ-TERT fibroblast viability loss – cell-based, RAS-independent, luminescence, dose response (AID 1933); assay type: functional; conditions: Homo sapiens
BJ [13] = experiment: cells; assay type: functional, cell-based; conditions: Homo sapiens
[14] = non-specific 3'UTR reporter inhibition in Clone20-Shn3RL – cell-based, Renilla luciferase, cherry-picked, counter-screen for Shn3 inhibitor project, dose response (AID 624133); assay type: functional
[15] = loss of viability in HepG2 cells – cell-based, CellTiter-Glo, cherry-picked, cytotoxicity control for Shn3 inhibitor project, dose response (AID 624134); assay type: functional
[16] = target: T3, Microphthalmia-associated transcription factor (Homo sapiens, UniProt O75030); experiment: reducers of TRPM1 reporter luminescence, concentration series – cell-based, SK-MEL-5, cherry-picked, set 3, MITF inhibitor project, dose response (AID 493073); assay type: functional;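 also: SK-MEL-5 melanoma cells with luciferase driven by the MITF target TRPM1 promoter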
T3 sequence (O75030 whole entry): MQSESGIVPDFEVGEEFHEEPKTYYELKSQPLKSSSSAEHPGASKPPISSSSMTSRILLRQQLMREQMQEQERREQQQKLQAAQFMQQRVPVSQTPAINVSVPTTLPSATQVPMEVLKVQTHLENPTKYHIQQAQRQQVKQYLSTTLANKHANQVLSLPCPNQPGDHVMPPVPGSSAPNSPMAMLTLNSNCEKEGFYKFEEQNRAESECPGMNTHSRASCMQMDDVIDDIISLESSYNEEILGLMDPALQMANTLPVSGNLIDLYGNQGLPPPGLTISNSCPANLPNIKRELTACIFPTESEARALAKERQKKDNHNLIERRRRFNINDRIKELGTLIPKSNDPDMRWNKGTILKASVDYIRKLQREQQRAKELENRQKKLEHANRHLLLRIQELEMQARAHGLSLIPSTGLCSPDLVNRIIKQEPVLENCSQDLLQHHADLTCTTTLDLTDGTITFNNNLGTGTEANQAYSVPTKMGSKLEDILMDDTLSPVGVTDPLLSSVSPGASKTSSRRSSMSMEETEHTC

[17] = HEK-293T cell viability reduction – luminescence, B-cell screen hits, cytotoxicity control for BCR NF-kB inhibitor project, dose response (AID 489021); assay type: functional, cell-based;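 also: HEK-293T cells carrying an NF-kB luciferase reporter; cells exposed to compound for about 14 hours before viability readout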
[18] = DRD fibroblast viability loss – cell-based, non-viral oncogenic, luminescence, dose response (AID 1934); assay type: functional; conditions: Homo sapiens
BJ [19] = experiment: BJ-TERT-LT-ST fibroblast viability loss – cell-based, RAS-independent, luminescence, dose response (AID 1935); assay type: functional; conditions: Homo sapiens;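 also: BJ fibroblasts immortalized with TERT plus LT and ST oncogenes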
[20] = viability of HCT116 lacking mutant beta-catenin – cell-based, human colon tumor, dose response (AID 1045); assay type: functional;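 also: HCT116 colon tumor cells with beta catenin knocked out; cells exposed to compound for 60 hours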

Chain of Voltage-dependent T-type calcium channel subunit alpha-1H (O95180 whole entry): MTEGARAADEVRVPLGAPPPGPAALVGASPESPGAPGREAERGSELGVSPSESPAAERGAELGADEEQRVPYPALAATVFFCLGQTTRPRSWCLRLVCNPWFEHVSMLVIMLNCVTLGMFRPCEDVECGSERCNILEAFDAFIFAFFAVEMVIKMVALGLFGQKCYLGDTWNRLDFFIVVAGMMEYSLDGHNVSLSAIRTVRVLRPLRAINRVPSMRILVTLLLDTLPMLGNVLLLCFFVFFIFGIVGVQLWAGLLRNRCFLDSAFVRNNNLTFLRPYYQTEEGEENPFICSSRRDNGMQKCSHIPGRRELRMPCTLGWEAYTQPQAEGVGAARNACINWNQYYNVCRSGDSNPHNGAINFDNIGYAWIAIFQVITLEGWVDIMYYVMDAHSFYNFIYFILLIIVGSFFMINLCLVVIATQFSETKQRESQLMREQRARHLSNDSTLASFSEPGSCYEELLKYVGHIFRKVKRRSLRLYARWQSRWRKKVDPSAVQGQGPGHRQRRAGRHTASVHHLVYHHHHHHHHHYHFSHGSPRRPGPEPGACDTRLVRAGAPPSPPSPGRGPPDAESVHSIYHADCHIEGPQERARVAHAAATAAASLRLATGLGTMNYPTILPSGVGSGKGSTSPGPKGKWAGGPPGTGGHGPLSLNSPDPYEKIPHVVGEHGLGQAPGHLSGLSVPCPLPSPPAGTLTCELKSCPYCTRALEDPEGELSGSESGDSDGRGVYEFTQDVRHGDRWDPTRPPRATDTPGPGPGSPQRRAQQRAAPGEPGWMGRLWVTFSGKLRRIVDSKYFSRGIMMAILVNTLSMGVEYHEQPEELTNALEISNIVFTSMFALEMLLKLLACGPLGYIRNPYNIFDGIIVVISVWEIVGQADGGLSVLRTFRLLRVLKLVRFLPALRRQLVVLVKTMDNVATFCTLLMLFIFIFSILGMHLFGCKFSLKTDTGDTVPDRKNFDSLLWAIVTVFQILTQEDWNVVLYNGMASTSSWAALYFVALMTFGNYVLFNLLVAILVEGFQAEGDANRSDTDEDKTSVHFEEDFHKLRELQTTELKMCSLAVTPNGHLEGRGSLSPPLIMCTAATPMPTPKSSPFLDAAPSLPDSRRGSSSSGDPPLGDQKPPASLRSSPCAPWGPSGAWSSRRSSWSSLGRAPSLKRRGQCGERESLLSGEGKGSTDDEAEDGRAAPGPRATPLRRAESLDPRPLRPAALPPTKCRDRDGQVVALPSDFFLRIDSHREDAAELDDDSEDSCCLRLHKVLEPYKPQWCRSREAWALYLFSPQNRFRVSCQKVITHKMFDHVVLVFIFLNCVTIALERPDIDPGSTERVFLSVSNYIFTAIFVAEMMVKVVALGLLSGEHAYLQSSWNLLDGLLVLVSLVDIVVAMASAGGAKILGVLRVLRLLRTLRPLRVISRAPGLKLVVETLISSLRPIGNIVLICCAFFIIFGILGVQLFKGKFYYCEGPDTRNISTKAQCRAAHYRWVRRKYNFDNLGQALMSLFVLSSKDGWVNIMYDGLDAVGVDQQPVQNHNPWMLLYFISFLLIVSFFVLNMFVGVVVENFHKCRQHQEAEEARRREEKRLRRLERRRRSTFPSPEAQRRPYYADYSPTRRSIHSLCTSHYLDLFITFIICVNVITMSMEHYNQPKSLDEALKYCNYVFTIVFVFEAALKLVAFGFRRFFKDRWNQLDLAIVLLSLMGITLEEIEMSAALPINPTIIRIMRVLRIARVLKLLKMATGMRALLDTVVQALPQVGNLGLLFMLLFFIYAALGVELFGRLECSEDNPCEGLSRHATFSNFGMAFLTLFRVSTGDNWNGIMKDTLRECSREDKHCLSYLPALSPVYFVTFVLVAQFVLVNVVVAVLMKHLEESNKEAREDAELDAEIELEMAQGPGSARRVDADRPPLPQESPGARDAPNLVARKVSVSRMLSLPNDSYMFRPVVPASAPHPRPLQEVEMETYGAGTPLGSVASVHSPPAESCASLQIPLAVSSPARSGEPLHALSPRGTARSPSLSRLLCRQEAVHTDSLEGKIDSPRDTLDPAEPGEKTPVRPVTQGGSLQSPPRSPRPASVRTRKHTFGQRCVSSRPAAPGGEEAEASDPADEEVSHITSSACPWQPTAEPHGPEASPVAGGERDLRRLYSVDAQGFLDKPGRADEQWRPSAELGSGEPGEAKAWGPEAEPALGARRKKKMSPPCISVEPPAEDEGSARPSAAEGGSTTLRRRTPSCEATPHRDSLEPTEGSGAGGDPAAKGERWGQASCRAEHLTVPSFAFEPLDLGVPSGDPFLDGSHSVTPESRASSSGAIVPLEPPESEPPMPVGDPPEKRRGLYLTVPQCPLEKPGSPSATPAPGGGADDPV
Chain of Alkaline phosphatase, placental type (P05187 whole entry): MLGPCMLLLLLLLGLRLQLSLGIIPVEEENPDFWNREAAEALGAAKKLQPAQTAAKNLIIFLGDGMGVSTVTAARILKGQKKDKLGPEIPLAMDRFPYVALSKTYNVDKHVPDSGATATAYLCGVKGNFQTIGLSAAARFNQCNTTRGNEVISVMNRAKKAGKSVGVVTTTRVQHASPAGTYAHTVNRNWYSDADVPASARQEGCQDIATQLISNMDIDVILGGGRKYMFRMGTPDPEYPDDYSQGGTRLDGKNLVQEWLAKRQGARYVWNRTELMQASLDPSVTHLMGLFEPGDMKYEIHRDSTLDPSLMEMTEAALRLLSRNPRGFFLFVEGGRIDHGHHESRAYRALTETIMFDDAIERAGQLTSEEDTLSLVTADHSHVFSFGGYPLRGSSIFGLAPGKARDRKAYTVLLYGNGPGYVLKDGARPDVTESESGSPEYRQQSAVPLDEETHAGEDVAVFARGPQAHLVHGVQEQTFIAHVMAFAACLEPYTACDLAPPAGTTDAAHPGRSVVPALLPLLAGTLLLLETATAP

## Cc1cc(C)nc(SCC(=O)c2ccc(O)cc2)n1
[1]
  IC50: > 100 µM (inactive)
[2]
  IC50: > 100 µM (inactive)

## CCCCN(CC)S(=O)(=O)c1ccc(C(=O)Nc2nnc(-c3cccs3)o2)cc1
[3]
  CC50: 3.18 µM (active)
cells
  IC50: 4.66 µM (active)
[4]
  CC50: 9.5 µM (active)
[5]
  EC50: 2.67 µM (active)
[6]
  EC50: 1.22 µM (active)
[7]
  CC50: 4.23 µM (active)
[8]
  EC50: 5.48 µM (active)

## CCCC(NCC(O)COc1ccc(-c2ccccc2)cc1)c1ccccc1 (stereo not drawn)
[3]
  CC50: 15.7 µM (active)
cells
  IC50: 12 µM (active)
Protein skinhead-1
  IC50: > 100 µM (inactive)
[4]
  CC50: > 20 µM (active)
[6]
  EC50: 2.1 µM (active)
[9]
  CC50: 12.6 µM (active)
[7]
  CC50: 12.7 µM (active)
[8]
  EC50: 17.6 µM (active)

## COc1ccc(C(C(=O)NC2CCCCC2)N(C(=O)CCl)c2ccc(OC)cc2)cc1 (stereo not drawn)
[10]
  AC50: 5.56 µM (active)
[11]
  EC50: 0.959 µM (active)
BJ [12]
  EC50: 1.15 µM (inconclusive)
BJ [13]
  EC50: 5.19 µM (active)
[14]
  AC50: 14.8 µM (active)
[15]
  AC50: > 70 µM (inactive)
[16]
  AC50: 9.27 µM (active)
[17]
  IC50: > 80 µM (inactive)
[18]
  EC50: 1.26 µM (active)
BJ [19]
  EC50: 8.28 µM (inconclusive)
[20]
  EC50: 0.721 µM (active)
